Results taken from patent US20250243488A1, “METHODS OF MODULATING PROGRANULIN EXPRESSION USING ANTISENSE OLIGONUCLEOTIDES TARGETING REGULATORY RNAS” (Camp4 Therapeutics Corporation, priority 2022, published 2025).
Oligonucleotides are written 5' to 3', each unit as a sugar letter and its base; * is a phosphorothioate linkage, no mark a phosphodiester; rarer units and linkages stand in square brackets, end groups in braces. Plain capitals give the bases only. e = 2'-O-(2-methoxyethyl) (MOE); l = locked nucleic acid (LNA); [5mC] = 5-methylcytosine

System: mGrn mRNA
Test: mGrn mRNA qPCR in Neuro2a cells transfected with ASOs
Format: cell-based, mouse
Conditions: for mGRN mRNA FC: Table 14, 100 nM, 48 hours, normalized to sNTC3; for 40 nM FC (mGrn mRNA) / 80 nM FC (mGrn mRNA) / 160 nM FC (mGrn mRNA): transfection
Experimental: 57 ASOs targeting the Grn promoter (− strand) were screened in Neuro2a cells. Neuro2a cells were transfected with 100 nM of each of the ASOs listed in Table 14 and cells were harvested 48 hours later for Grn mRNA quantification using qPCR. Housekeeping genes for normalization were Gapdh and Ppia. Relative Grn mRNA levels were normalized to mRNA extracted from cells treated with sNTC3 (steric nontargeting control).
Next, 26 ASOs based on parent ASOs CO-3544 and CO-3595 were designed with different modifications and base walking. Neuro2a cells were transfected with either […] or 160 nM of each of the ASOs listed in Table 15, and cells were harvested 48 hours later for mGrn mRNA quantification using qPCR. As controls, cells were treated with sNTC3 or no ASO. Housekeeping genes for normalization were Gapdh and Ppia. Relative Grn mRNA levels were normalized to mRNA extracted from cells treated with sNTC3.
CO-3544 was modified to include PO/PS bonds and the efficacy in upregulating mGrn mRNA was determined.
Similarly, CO-3595 was modified to include varying PO/PS internucleotide bonds and the efficacy of these ASOs in upregulating mGrn mRNA was determined in Neuro2A cells.

Substance	mGRN mRNA FC (Neuro2a) [FC]	40 nM FC (mGrn mRNA) (Table 15, Neuro2a) [FC]	80 nM FC (mGrn mRNA) (Table 15, Neuro2a) [FC]	160 nM FC (mGrn mRNA) (Table 15, Neuro2a) [FC]	also measured
CO-3585: ASO targeting the Grn promoter (− strand) (antisense eG*eT*e[5mC]*e[5mC]*e[5mC]*eA*e[5mC]*e[5mC]*eT*eT*eA*eT*e[5mC]*eA*eG*e[5mC]*e[5mC]*eT*e[5mC]*eT)	1.7	–	–	–	–
CO-3586: ASO targeting the Grn promoter (− strand) (antisense eA*eA*eT*e[5mC]*eT*eA*eG*eT*eT*eT*e[5mC]*eA*eA*eG*eT*eT*e[5mC]*e[5mC]*eT*e[5mC])	1.4	–	–	–	–
CO-3587: ASO targeting the Grn promoter (− strand) (antisense eT*eA*e[5mC]*e[5mC]*e[5mC]*eA*eA*eG*eG*eA*eA*eA*eG*eG*eA*eT*eT*e[5mC]*eA*e[5mC])	1.9	–	–	–	–
CO-3588: ASO targeting the Grn promoter (− strand) (antisense eG*eT*e[5mC]*eT*eG*eT*eA*eA*eA*eG*eA*eA*e[5mC]*eA*eA*eG*eA*eT*eA*eT)	0.9	–	–	–	–
CO-3589: ASO targeting the Grn promoter (− strand) (antisense eT*eT*eT*e[5mC]*eA*eA*e[5mC]*e[5mC]*e[5mC]*eT*eT*eG*e[5mC]*eT*eA*eG*eA*eG*eG*e[5mC])	1.3	–	–	–	–
CO-3590: ASO targeting the Grn promoter (− strand) (antisense eT*eA*eA*eT*eG*e[5mC]*e[5mC]*e[5mC]*eT*eT*eA*eT*e[5mC]*eT*eT*eG*eA*eA*e[5mC]*eG)	1.2	–	–	–	–
CO-3591: ASO targeting the Grn promoter (− strand) (antisense e[5mC]*e[5mC]*eA*e[5mC]*e[5mC]*eA*eG*e[5mC]*e[5mC]*eT*eA*e[5mC]*eT*e[5mC]*e[5mC]*eA*e[5mC]*eA*eG*eG)	1.4	–	–	–	–
CO-3592: ASO targeting the Grn promoter (− strand) (antisense eG*eA*eA*eA*e[5mC]*e[5mC]*e[5mC]*e[5mC]*eT*eT*e[5mC]*e[5mC]*eA*eT*e[5mC]*eT*e[5mC]*eG*eA*e[5mC])	1.2	–	–	–	–
CO-3593: ASO targeting the Grn promoter (− strand) (antisense e[5mC]*eA*eT*eA*eA*e[5mC]*eA*eA*eT*eT*e[5mC]*e[5mC]*eT*e[5mC]*eG*eA*eA*eG*eG*eT)	1.1	–	–	–	–
CO-3594: ASO targeting the Grn promoter (− strand) (antisense e[5mC]*eA*eT*eG*eG*eT*e[5mC]*eT*e[5mC]*eT*eA*eT*eT*e[5mC]*eA*e[5mC]*e[5mC]*e[5mC]*eA*e[5mC])	1.6	–	–	–	–
CO-3595: ASO targeting the Grn promoter (− strand) (antisense e[5mC]*e[5mC]*eT*eG*eA*eA*e[5mC]*eT*eG*eT*eA*eT*eG*eG*e[5mC]*eT*eG*eA*e[5mC]*e[5mC])	2.3	–	–	–	mGrn mRNA upregulation (Neuro2a, dose-dependent, normalized to sNTC3 (FIG. 13)): ≤ 1.8 fold; 40 nM FC (mGrn mRNA) (Table 16, Neuro2A): 1.2 FC; 80 nM FC (mGrn mRNA) (Table 16, Neuro2A): 1.3 FC; 160 nM FC (mGrn mRNA) (Table 16, Neuro2A): 1.4 FC
CO-3596: ASO targeting the Grn promoter (− strand) (antisense e[5mC]*eT*e[5mC]*eT*eA*eT*eG*eT*eA*eA*eG*eA*e[5mC]*eT*e[5mC]*e[5mC]*e[5mC]*eA*e[5mC]*eT)	1.4	–	–	–	–
CO-3597: ASO targeting the Grn promoter (− strand) (antisense eA*e[5mC]*eA*eA*e[5mC]*e[5mC]*e[5mC]*eT*eG*e[5mC]*eA*eT*eG*e[5mC]*eA*e[5mC]*eT*e[5mC]*e[5mC]*eT)	1.2	–	–	–	–
CO-3598: ASO targeting the Grn promoter (− strand) (antisense eT*eA*eA*eG*eA*eA*eG*e[5mC]*e[5mC]*e[5mC]*eT*e[5mC]*eA*e[5mC]*eG*eG*eA*eA*eT*eT)	1.3	–	–	–	–
CO-3599: ASO targeting the Grn promoter (− strand) (antisense eA*eT*eG*eA*eT*eG*e[5mC]*eA*e[5mC]*e[5mC]*eA*eG*eT*e[5mC]*eT*eT*eA*e[5mC]*eA*e[5mC])	1.0	–	–	–	–
CO-3600: ASO targeting the Grn promoter (− strand) (antisense eG*eG*eA*eA*e[5mC]*eA*e[5mC]*e[5mC]*eT*eA*eT*eG*e[5mC]*eT*eA*eA*e[5mC]*eA*e[5mC]*e[5mC])	1.5	–	–	–	–
CO-4082: ASO based on parent ASOs CO-3544 and CO-3595, different modifications and base walking (antisense eG*eT*eT*e[5mC]*eT*l[5mC]*e[5mC]*e[5mC]*lT*eA*eG*l[5mC]*eT*eG*lT*eG*eT*eA*eG*eT)	–	1.4	1.6	1.4	–
CO-4083: ASO based on parent ASOs CO-3544 and CO-3595, different modifications and base walking (antisense e[5mC]*e[5mC]*eT*eG*eA*lA*e[5mC]*eT*lG*eT*eA*lT*eG*eG*l[5mC]*eT*eG*eA*e[5mC]*e[5mC])	–	–	–	–	40 nM FC (mGrn mRNA) (Table 16, Neuro2A): 1.3 FC; 80 nM FC (mGrn mRNA) (Table 16, Neuro2A): 1.4 FC; 160 nM FC (mGrn mRNA) (Table 16, Neuro2A): 1.6 FC
CO-5290: CO-3544 modified to include PO/PS bonds (antisense eG*eT*eTe[5mC]eTe[5mC]e[5mC]e[5mC]eTeAeGe[5mC]eTeGeTeGeT*eA*eG*eT)	–	1.1	1.0	1.0	–
CO-5291: CO-3544 modified to include PO/PS bonds (antisense eG*eT*eT*e[5mC]*eTe[5mC]e[5mC]e[5mC]eTeAeGe[5mC]eTeGeTeGeT*eA*eG*eT)	–	0.9	1.0	0.9	–
CO-5292: CO-3544 modified to include PO/PS bonds (antisense eG*eT*eT*e[5mC]*eT*e[5mC]*e[5mC]e[5mC]eTeAeGe[5mC]eTeGeTeGeT*eA*eG*eT)	–	1.1	1.1	1.1	–
CO-5293: CO-3544 modified to include PO/PS bonds (antisense GTTCTCCCTAGCTGTGTAGT; 2'-MOE, mixed PS/PO, 5-methylcytosine; listed as RNA; modified_base 1..9: mod_base = OTHER; note = Phosphorothioate linkage; modified_base 17..20: mod_base = OTHER; modified_base 1..20: mod_base = OTHER; note = 2'-O-(2-methoxyethyl) ribonucleotide; modified_base 4)	–	1.1	1.0	1.1	–
CO-5294: CO-3544 modified to include PO/PS bonds (antisense eG*eT*eT*e[5mC]*eT*e[5mC]*e[5mC]*e[5mC]*eT*eA*eGe[5mC]eTeGeTeGeT*eA*eG*eT)	–	1.1	1.1	1.3	–
CO-5295: CO-3544 modified to include PO/PS bonds (antisense eG*eT*eT*e[5mC]*eT*e[5mC]*e[5mC]*e[5mC]*eT*eA*eG*e[5mC]*eTeGeTeGeT*eA*eG*eT)	–	1.1	1.3	1.4	–
CO-5296: CO-3544 modified to include PO/PS bonds (antisense eG*eT*eTe[5mC]eTe[5mC]e[5mC]e[5mC]eTeAeGe[5mC]eTeGeTeG*eT*eA*eG*eT)	–	1.1	1.1	1.0	–
CO-5297: CO-3544 modified to include PO/PS bonds (antisense eG*eT*eTe[5mC]eTe[5mC]e[5mC]e[5mC]eTeAeGe[5mC]eTeG*eT*eG*eT*eA*eG*eT)	–	1.0	1.1	1.2	–
CO-5298: CO-3544 modified to include PO/PS bonds (antisense eG*eT*eTe[5mC]eTe[5mC]e[5mC]e[5mC]eTeAeGe[5mC]*eT*eG*eT*eG*eT*eA*eG*eT)	–	1.3	1.3	1.5	–
CO-5299: CO-3544 modified to include PO/PS bonds (antisense eG*eT*eTe[5mC]eTe[5mC]e[5mC]e[5mC]eTeA*eG*e[5mC]*eT*eGeT*eG*eT*eA*eG*eT)	–	1.2	1.3	1.5	–
CO-5300: CO-3544 modified to include PO/PS bonds (antisense eG*eT*eTe[5mC]eTe[5mC]e[5mC]e[5mC]*eT*eA*eG*e[5mC]*eT*eG*eT*eG*eT*eA*eG*eT)	–	1.3	1.4	1.4	–
CO-5301: CO-3544 modified to include PO/PS bonds (antisense lG*lT*eT*l[5mC]*lT*e[5mC]*l[5mC]*e[5mC]*lT*eA*lG*e[5mC]*lT*eG*lT*eG*lT*eA*lG*lT)	–	0.9	1.0	0.7	–
